Results on twelve molecules are retold here after ChEMBL document CHEMBL1201862, “PubChem BioAssay data set” (2004).

Common to all, as to test: inhibition of tumour cell growth, NCI panel, 48 h
Assay [1] relates to A549.
Assay [2] deals with UACC-257.
Assay [3] deals with CAKI-1.
In assay [4] the test system is SK-MEL-28.
Assay [5] deals with SF-295.
Assay [6] relates to SK-OV-3.
In assay [7] the test system is SK-MEL-5.
The test system of assay [8] is SNB-75.
For assay [9], the system named is U-251.
In assay [10] the test system is MDA-MB-231.
Assay [11] relates to MDA-MB-435.
Assay [12] has as its system HL-60.
The test system of assay [13] is DU-145.
In assay [14] the test system is HT-29.
The test system of assay [15] is Malme-3M.
Assay [16] deals with Hs-578T.
For assay [17], the system named is A498.
For assay [18], the system named is SN12C.
For assay [19], the system named is BT-549.

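Five concentrations, 48 hours, 96-well plates. Here, GI50 denotes the concentration required for 50% inhibition of growth.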 Calls of active or inactive are those of the source. No stated cut-off is given here; in the data, active = GI50 up to about 1.1 µM and inactive = higher.

Regarding `O=C1c2cc3c(cc2CC12Cc1cc4c(cc1C2=O)CCC4)CCCC3` (stereo not drawn), the GI50 in assay [1], in assay [2], in assay [3], in assay [4], in assay [5] and in assay [6] was > 100 µM (inactive) in each case. Further, the GI50 in assay [7] was > 100 µM (inactive); in assay [8], > 100 µM (inactive); in assay [9], 89.1 µM (inactive); in assay [10], > 100 µM (inactive); in [11] it was > 100 µM (inactive); in assay [12], > 100 µM (inactive). For the same molecule, the GI50 is > 100 µM (inactive) in assay [13]; > 100 µM (inactive) in assay [14]; 59.4 µM (inactive) in assay [15]; > 100 µM (inactive) in [16]; > 100 µM (inactive) in assay [17].

For `CCn1c2nc(=O)n(CCCCCCCCSC(c3ccccc3)(c3ccccc3)c3ccccc3)c(=O)c-2nc2ccccc21`, the GI50 is 3.73 µM (inactive) in assay [2]; 5.22 µM (inactive) in assay [3]; 53.3 µM (inactive) in assay [4]; 20.4 µM (inactive) in assay [5]; 82.8 µM (inactive) in assay [6]; 3.44 µM (inactive) in [7]. The GI50 in assay [9] was 19 µM (inactive); in assay [10], 45.4 µM (inactive); in assay [11], 6.12 µM (inactive); in [12], 0.181 µM (active); in assay [13], 90.6 µM (inactive); in assay [14], 2.74 µM (inactive). Besides, the GI50 is 3.33 µM (inactive) in assay [16] and 37.8 µM (inactive) in assay [17].

`CCCC(=O)OC1C(CO)OC(n2cc(F)c(=O)[nH]c2=O)C1F` (stereo not drawn): the GI50 was > 100 µM (inactive) in assay [1]; > 100 µM (inactive) in [2]; 50.2 µM (inactive) in assay [3]; 15.4 µM (inactive) in [18]; > 100 µM (inactive) in [4]; 82 µM (inactive) in assay [5]. Also, the GI50 in [6] is > 100 µM (inactive); in [7], 53.2 µM (inactive); in assay [8], 5.86 µM (inactive); in assay [9], 7.45 µM (inactive); in assay [11], 59.4 µM (inactive); in assay [12], 80.5 µM (inactive). Further, the GI50 in assay [13] was 17.3 µM (inactive); in assay [19], 11.5 µM (inactive); in [14], 55.2 µM (inactive); in assay [15], 42.6 µM (inactive); in assay [16], 53.7 µM (inactive); in assay [17] it was 5.68 µM (inactive).

As for `CSCCC(NC(c1ccccc1)c1ccccc1)[PH](=O)O` (stereo not drawn), the GI50 in assay [1], in [2], in [3], in assay [18], in assay [4] and in assay [5] was > 100 µM (inactive) throughout. Besides, the GI50 in assay [6], in assay [7], in assay [8], in assay [9], in [11] and in [12] was > 100 µM (inactive) each time. The GI50 in assay [13], in assay [19], in assay [14], in [15] and in assay [16] was > 100 µM (inactive) each time.

Regarding `CN(C(=S)Cc1ccc(Cl)c(Cl)c1)C1CCCC[C@@H]1N1CCCC1` (stereo partly drawn), the GI50 in assay [1] was 63.4 µM (inactive); in assay [3] it was 44.6 µM (inactive); in assay [18] it was 63.7 µM (inactive); in assay [4] it was 16.7 µM (inactive); in assay [5], 17.1 µM (inactive); in assay [6] it was 58.7 µM (inactive). Further, the GI50 in assay [7] was 18.5 µM (inactive); in assay [9] it was 29.9 µM (inactive); in assay [10], 34.4 µM (inactive); in [11], 26.6 µM (inactive); in assay [12], 28.5 µM (inactive); in [13], > 100 µM (inactive). Also, the results for the GI50 in [19], in [14] and in [17] were 72.1 µM (inactive), 16.7 µM (inactive) and 13 µM (inactive), respectively.

`O=[N+]([O-])/C(C(Cl)=C(Cl)Cl)=C(\SCc1ccccc1)N1CCCCC1`: the GI50 in assay [1] is 30.9 µM (inactive); in assay [2], 28.4 µM (inactive); in [3] it was > 100 µM (inactive); in [18], 20.2 µM (inactive); in assay [4], 37.2 µM (inactive); in [5] it was 38.5 µM (inactive). In addition, the GI50 is 40 µM (inactive) in assay [6]; 15.8 µM (inactive) in assay [7]; 43.8 µM (inactive) in assay [9]; 13.3 µM (inactive) in assay [10]; 16.3 µM (inactive) in assay [11]; 9.73 µM (inactive) in assay [12]. Also, the GI50 in assay [13] was 41.3 µM (inactive); in [14] it was 36.6 µM (inactive); in assay [15], 12.2 µM (inactive); in [16], 27.5 µM (inactive); in assay [17], 31.9 µM (inactive).

Turning to `Cc1ccc(/N=c2/oc3c(ccc4ccccc43)nc2Nc2ccc(C)cc2)cc1`, the GI50 in [1], in [2], in assay [3], in [18], in [4] and in [5] was > 100 µM (inactive) throughout. Moreover, the GI50 in [6], in [7], in assay [8], in assay [9], in assay [10] and in assay [11] was > 100 µM (inactive) throughout. Also, the GI50 in assay [12], in assay [13], in assay [14], in assay [15], in [16] and in assay [17] was > 100 µM (inactive) throughout.

Consider `NCCCNOCCCN`, for which the GI50 in assay [1], in assay [3], in assay [18], in [4], in assay [5] and in [6] was > 100 µM (inactive) each time. Further, the GI50 was > 100 µM (inactive) in assay [7]; 43.7 µM (inactive) in [9]; > 100 µM (inactive) in assay [10]; > 100 µM (inactive) in assay [11]; > 100 µM (inactive) in [13]; > 100 µM (inactive) in assay [14]. For the same molecule, the GI50 in [15] and in [17] was > 100 µM (inactive) throughout.

Turning to `Cc1c(NC(=O)CCCl)c(=O)oc2c(C)c3occc(=O)c3cc12`, the GI50 in assay [1] was > 100 µM (inactive); in assay [2], 60.1 µM (inactive); in assay [3], 42.1 µM (inactive); in [4] it was 53 µM (inactive); in assay [5], 33 µM (inactive); in [6], 86.9 µM (inactive). In addition, the GI50 is 36.8 µM (inactive) in [7]; 42.2 µM (inactive) in assay [8]; 67.6 µM (inactive) in assay [9]; 57.7 µM (inactive) in [12]; > 100 µM (inactive) in assay [13]; > 100 µM (inactive) in assay [14]. Moreover, the values for the GI50 in assay [15], in [16] and in assay [17] were 23.5 µM (inactive), 35.5 µM (inactive) and 19.7 µM (inactive), respectively.

As to `CC(=O)Oc1ccc(OC(Oc2ccccc2)c2ccccc2)cc1` (stereo not drawn), the GI50 in assay [1] is 37.5 µM (inactive); in assay [2] it was 32.2 µM (inactive); in [3], 20 µM (inactive); in assay [18], 15 µM (inactive); in assay [4], 26.2 µM (inactive); in [5], 29.6 µM (inactive). For the same molecule, the GI50 is 32.6 µM (inactive) in assay [6]; 10.4 µM (inactive) in assay [8]; 17.5 µM (inactive) in assay [9]; 18.9 µM (inactive) in assay [10]; 32.4 µM (inactive) in [11]; 12.6 µM (inactive) in assay [12]. Moreover, the GI50 is 36.9 µM (inactive) in assay [13]; 27 µM (inactive) in [19]; 28.1 µM (inactive) in assay [14]; 23.6 µM (inactive) in assay [15]; 23.7 µM (inactive) in assay [17].

Consider `[O-][N+]1=NC(c2ccccc2)=C1c1ccccc1`, for which the GI50 in assay [1], in [2], in [3], in assay [18], in assay [4] and in assay [5] was > 50 µM (inactive) in each case. Moreover, the GI50 in [6] is > 50 µM (inactive); in assay [7], > 50 µM (inactive); in assay [8], 10.8 µM (inactive); in assay [9], > 50 µM (inactive); in assay [10] it was > 50 µM (inactive); in [11] it was > 50 µM (inactive). Also, the GI50 in assay [12] was 11.4 µM (inactive); in assay [13], > 50 µM (inactive); in assay [14], > 50 µM (inactive); in assay [15], > 50 µM (inactive); in assay [16] it was > 50 µM (inactive); in assay [17] it was > 50 µM (inactive).

As to `CN/C(=N\CCSCc1nc[nH]c1C)NC#N` [CIMETIDINE], the GI50 in [1], in [2], in assay [3], in [18], in assay [4] and in assay [5] was > 100 µM (inactive) each time. Besides, the GI50 in [6] was > 100 µM (inactive); in assay [7], > 100 µM (inactive); in assay [8], 33.3 µM (inactive); in assay [9], > 100 µM (inactive); in assay [10], > 100 µM (inactive); in assay [11], > 100 µM (inactive). In addition, the GI50 in [12] is > 100 µM (inactive); in assay [13], > 100 µM (inactive); in assay [14] it was > 100 µM (inactive); in assay [15], > 100 µM (inactive); in assay [16] it was > 100 µM (inactive); in [17], 91.6 µM (inactive).
